Reference: PubChem BioAssay (NCI)
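In this assay, cells in 96-well plates receive the compound at five concentrations for 48 hours. Endpoints are linearly interpolated between the surrounding concentrations. Abbreviation: GI50, concentration required for 50% inhibition of growth. The concentration for full growth arrest is given as TGI.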

Assays:
Experiment in all cases: growth of human tumour cells (NCI), 48 h
[1] = test system: 786-0 renal
[2] = test system: IGROV1 ovarian
[3] = test system: OVCAR-4 ovarian
[4] = test system: PC-3 prostate
[5] = test system: SK-OV-3 ovarian
[6] = test system: NCI-H460 lung
[7] = test system: NCI-H226 lung
[8] = test system: EKVX NSCLC
[9] = test system: ACHN renal
[10] = test system: HCC-2998 colon

Compound	TGI [1] [µM]	TGI [2] [µM]	TGI [3] [µM]	TGI [4] [µM]	TGI [5] [µM]	TGI [6] [µM]	TGI [7] [µM]	TGI [8] [µM]	TGI [9] [µM]	TGI [10] [µM]	GI50 [1] [µM]	GI50 [2] [µM]	GI50 [3] [µM]	GI50 [4] [µM]	GI50 [5] [µM]	GI50 [6] [µM]	GI50 [7] [µM]	GI50 [8] [µM]	GI50 [9] [µM]	GI50 [10] [µM]
CC1=Nc2ccccc2/C1=C\c1c(C)[nH]c2ccccc12	25.8	25.4	47.1	39.2	51.8	44.6	33.2	29.7	29.5	30.1	–	–	–	–	–	–	–	–	–	–
CC1=Cc2ccc(C)cc2C(=O)C1=O	3.81	29.4	32	43	27	41	> 100	42.3	4.14	30.8	–	–	–	–	–	–	–	–	–	–
C=C1C(=O)OC2CC(C)C3CC(O)OC(OCC)C3(C)CC12 (centres undefined)	25.1	48.1	50.3	45.9	87.2	38.6	63.1	> 62.2	39.5	30.6	–	–	–	–	–	–	–	–	–	–
CCN(c1cc(-c2ccc(CN3CCOCC3)cc2)cc(C(=O)NCc2c(C)cc(C)[nH]c2=O)c1C)C1CCOCC1	40.7	> 63	97.2	> 100	> 100	> 66.8	40.8	> 100	74.9	49.7	17.1	30.3	25.9	32	52.9	25.5	16.5	33.6	26	20.4
Cc1nc2ccc(NC(=O)CCNC(=O)CCCc3ccc(CC(C(=O)O)C(=O)O)cc3)cc2s1	> 100	> 100	> 100	> 100	> 100	> 100	> 100	> 100	> 100	> 100	> 100	> 100	> 100	> 100	> 100	> 100	> 100	> 100	> 100	> 100
O=C1CC(c2[nH]nc3ccccc23)C(=O)N1c1ccccc1 (centres undefined)	> 100	> 100	> 100	> 100	> 100	> 100	> 100	> 100	> 100	> 100	–	–	–	–	–	–	–	–	–	–
O=C1/C(=C/c2ccccc2)CN(C(=O)CCN2CCCC2)C/C1=C\c1ccccc1	1.94	7.75	4.78	2.42	20.5	4.52	13.9	7.15	4.78	3.22	–	–	–	–	–	–	–	–	–	–
O=C(NCCc1ccccn1)OCc1nc2nc(Cl)nc(N3CCOCC3)c2[nH]1	3.52	2.98	3.85	3.73	19.5	11.1	3.29	11.3	2.55	3.33	1.75	1.57	1.7	1.7	6.11	3.12	1.61	2.93	1.29	1.74
CCCCCCCCNCCC[C@@H](C)[C@H]1CC[C@H]2[C@@H]3[C@H](OCCCN)C[C@H]4C[C@H](OCCCN)CC[C@]4(C)[C@H]3C[C@H](OCCCN)[C@]12C	3.3	3.25	29.4	> 49.3	21.9	> 19.8	23.6	6.65	6.41	7	1.21	1.49	8.27	5.58	4.72	–	5.21	2.01	2.02	2.04
Cc1nc2c(n1C)C(=O)c1ccccc1C2=O	> 100	> 100	> 100	> 100	> 100	> 100	> 100	> 100	> 100	> 100	> 100	31.3	43.5	63.9	> 100	18	> 100	60.4	> 100	67.6
